# Results: patent publication US20140357726A1, “USE OF PEGYLATED ALCOHOLS FOR THE TREATMENT OF ACTINIC KERATOSIS” (MERZ PHARMA GmbH & CO. KGaA, priority 2011, published 2014)
# Tested on: NHEK-cells
# Assay: Resazurin viability assay on primary normal human epidermal keratinocytes (cytolytic potential)
# Format: cell-based
# Details: metabolic activity as read-out (Resazurin-assay); eight concentrations up to 1 mM
# Method: By using primary, normal human epidermal keratinocytes (NHEK, FIG. 1) the cytolytic potential of the drug compound was investigated.
# The viability of the cells was monitored by their metabolic activity using the Resazurin-assay. Eight different concentrations (up to 1 mM) of polidocanol were investigated. Viability of the cells was plotted against the different concentration of test compound.
# From the resulting sigmoid-curve the IC50 value for the cytolytic effect was determined and given in the respective figure. FIG. 1 depicts the relative viability of NHEK-cells vs. the concentration of test-compound using metabolic activity as read-out.
substance,measurement,value
Polidocanol,relative viability of NHEK-cells vs. the concentration of test-compound,clear negative-impact
